According to the NIST ThermoML archive (doi:10.1016/j.jct.2010.10.016):

What was measured:
[1] = xn = mol fraction of the nth substance listed; settings: 101 kPa, Liquid; for viscosity: Capillary tube (Ostwald / Ubbelohde) method; for mass density: Pycnometric method; for speed of sound: Resonance method
[2] = relative permittivity at various frequencies (dimensionless); xn = mol fraction of the nth substance listed; settings: 101 kPa, Liquid, Frequency=3 MHz, AC method

COCCO [2-methoxyethan-1-ol] + C[N+](=O)[O-]
x2 = 0
Settings	mass density, [1] [kg/m3]	relative permittivity, [2]	speed of sound, [1] [m/s]	viscosity, [1] [mPa·s]
293.15 K	964.88	17.38	1359.3	1.708
298.15 K	960.29	16.96	1342.1	1.544
303.15 K	955.77	16.56	1325.1	1.404
308.15 K	951.19	16.16	1313.5	1.246
313.15 K	946.21	15.77	1296.8	1.098

C[N+](=O)[O-] [nitromethane] + CCCCOCCO
x1 = 1
Settings	mass density, [1] [kg/m3]	relative permittivity, [2]	speed of sound, [1] [m/s]	viscosity, [1] [mPa·s]
293.15 K	1137.63	37.31	1340.2	0.648
298.15 K	1130.62	36.52	1320.4	–
298.45 K	–	–	–	0.619
303.15 K	1123.6	35.66	1298.1	0.584
308.15 K	1116.86	34.92	1281.2	0.563
313.15 K	1109.87	34.09	1262.8	0.545
